What was measured:
[1] = target: T1, HEK-EBNA cells expressing a PG EP2 receptor subtype (Homo sapiens, UniProt P43116); test: cAMP assay, EP2; format: cell-based; conditions: unit inferred; read-out: EP2 data cAMP EC50
T1 construct: expressed in transfected cells; host or cells: HEK-EBNA
Procedure: A 384-well drug plate was prepared to contain 6 test compounds, PGE2 and cAMP in 16 serial dilutions in triplicate, using a Biomek station. HEK-EBNA cells expressing a target PG receptor subtype (EP2 or EP4) were suspended in a stimulation buffer (HBSS, 0.1% BSA, 0.5 mM IBMX and 5 mM HEPES, pH 7.4) in a density of 10^4 cells/5 μl. The reaction was initiated by mixing 5 μL drug dilutions with 5 μl of HEK-EBNA cells in a well, carried out for 30 min at room temperature, and followed by the addition of 5 μl anti-cAMP acceptor beads in the control buffer with Tween-20 (25 mM NaCl, 0.03% Tween-20, 5 mM HEPES, pH7.4). After 30 min in the dark at room temperature, the mixtures were incubated with 15 μl biotinylated-cAMP/strepavidin donor beads in Lysis/Detection buffer (0.1% BSA, 0.3% Tween-20 and 5 mM HEPES, pH7.4) for 45 min at the room temperature. Fluorescence changes were read using a Fusion-alpha HT microplate reader.

hEP2/Gqs5 = target: T2, hEP2/Gqs5 (Homo sapiens, UniProt P43116); test: FLIPR calcium signal, hEP2; format: cell-based; conditions: unit inferred; other columns of the table in nM; read-out: EP2 data flipr EC50
T2 construct: expressed in transfected cells; host or cells: HEK-293(EBNA)
T2 sequence (P43116 whole entry): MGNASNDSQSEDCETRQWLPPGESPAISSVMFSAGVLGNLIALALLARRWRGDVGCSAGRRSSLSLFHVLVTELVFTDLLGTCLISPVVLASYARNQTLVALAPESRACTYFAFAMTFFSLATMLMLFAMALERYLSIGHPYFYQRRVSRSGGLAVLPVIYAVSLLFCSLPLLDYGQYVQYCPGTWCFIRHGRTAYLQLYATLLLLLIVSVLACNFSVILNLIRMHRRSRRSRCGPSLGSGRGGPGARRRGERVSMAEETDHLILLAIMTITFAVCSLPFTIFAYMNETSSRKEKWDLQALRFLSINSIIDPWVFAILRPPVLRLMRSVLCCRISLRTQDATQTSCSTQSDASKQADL
Procedure: (§1) HEK-293(EBNA) cells, stably expressing one type or subtype of recombinant human prostaglandin receptors (prostaglandin receptors expressed: hDP/Gqs5; hEP1; hEP2/Gqs5; hEP3A/Gqi5; hEP4/Gqs5; hFP; hIP; hTP), were cultured in 100 mm culture dishes in high-glucose DMEM medium containing 10% fetal bovine serum, 2 mM 1-glutamine, 250 μg/ml geneticin (G418) and 200 μg/ml hygromycin B as selection markers, and 100 units/ml penicillin G, 100 μg/ml streptomycin and 0.25 μg/ml amphotericin B. • (b) Calcium Signal Studies on the FLIPR™
(§2) Cells were seeded at a density of 5×10^4 cells per well in Biocoat® Poly-D-lysine-coated black-wall, clear-bottom 96-well plates (Becton-Dickinson) and allowed to attach overnight in an incubator at 37° C. Cells were then washed two times with HBSS-HEPES buffer (Hanks Balanced Salt Solution without bicarbonate and phenol red, 20 mM HEPES, pH 7.4) using a Denley Cellwash plate washer (Labsystems). After 45 minutes of dye-loading in the dark, using the calcium-sensitive dye Fluo-4 AM at a final concentration of 2 μM, plates were washed four times with HBSS-HEPES buffer to remove excess dye leaving 100 μl in each well. Plates were re-equilibrated to 37° C. for a few minutes.
(§3) Cells were excited with an Argon laser at 488 nm, and emission was measured through a 510-570 nm bandwidth emission filter (FLIPR™, Molecular Devices, Sunnyvale, Calif.). Drug solution was added in a 50 μl volume to each well to give the desired final concentration. The peak increase in fluorescence intensity was recorded for each well. On each plate, four wells each served as negative (HBSS-HEPES buffer) and positive controls (standard agonists: BW245C (hDP); PGE2 (hEP1; hEP2/Gqs5; hEP3A/Gqi5; hEP4/Gqs5); PGF2α (hFP); carbacyclin (hIP); U-46619 (hTP), depending on receptor). The peak fluorescence change in each drug-containing well was then expressed relative to the controls.
(§4) Compounds were tested in a high-throughput (HTS) or concentration-response (CoRe) format. In the HTS format, forty-four compounds per plate were examined in duplicates at a concentration of 10^−5 M. To generate concentration-response curves, four compounds per plate were tested in duplicates in a concentration range between 10^−5 and 10^−11 M. The duplicate values were averaged. In either, HTS or CoRe format each compound was tested on at least 3 separate plates using cells from different passages to give an n≧3.

EP4 receptors = target: T3, EP4 receptors (Homo sapiens, UniProt P35408); test: Radioligand binding ([3H]PGE2), EP4; conditions: unit inferred; read-out: EP4 data KI
T3 construct: expressed in transfected cells; host or cells: HEK-293
T3 sequence (P35408 whole entry): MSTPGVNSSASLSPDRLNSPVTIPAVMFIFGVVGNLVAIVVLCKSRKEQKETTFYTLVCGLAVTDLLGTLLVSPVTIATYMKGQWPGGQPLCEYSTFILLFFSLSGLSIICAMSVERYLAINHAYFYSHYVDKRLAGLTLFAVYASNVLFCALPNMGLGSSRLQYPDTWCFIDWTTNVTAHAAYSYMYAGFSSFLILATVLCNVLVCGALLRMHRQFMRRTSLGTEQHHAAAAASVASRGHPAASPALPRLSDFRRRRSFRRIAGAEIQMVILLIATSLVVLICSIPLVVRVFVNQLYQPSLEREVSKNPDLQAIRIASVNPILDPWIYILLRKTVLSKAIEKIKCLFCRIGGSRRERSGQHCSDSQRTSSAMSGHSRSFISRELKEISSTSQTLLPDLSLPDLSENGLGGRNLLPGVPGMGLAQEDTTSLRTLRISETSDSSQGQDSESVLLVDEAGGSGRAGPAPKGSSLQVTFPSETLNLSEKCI
Procedure: (§5) HEK-293 cells stably expressing the human or feline FP receptor, or EP1, EP2, or EP4 receptors were washed with TME buffer, scraped from the bottom of the flasks, and homogenized for 30 sec using a Brinkman PT 10/35 polytron. TME buffer was added to achieve a final 40 ml volume in the centrifuge tubes (the composition of TME is 100 mM TRIS base, 20 mM MgCl2, […]; 10N HCl is added to achieve a pH of 7.4).
(§6) The cell homogenate was centrifuged at 19000 r.p.m. for 20 min at 4° C. using a Beckman Ti-60 rotor. The resultant pellet was resuspended in TME buffer to give a final 1 mg/ml protein concentration, as determined by Biorad assay. Radioligand binding competition assays vs. [^3H-]17 —phenyl PGF2α (5 nM) were performed in a 100 μl volume for 60 min. Binding reactions were started by adding plasma membrane fraction. The reaction was terminated by the addition of 4 ml ice-cold TRIS-HCl buffer and rapid filtration through glass fiber GF/B filters using a Brandel cell harvester. The filters were washed 3 times with ice-cold buffer and oven dried for one hour.
(§7) [^3H-] PGE2 (specific activity 180 Ci mmol) was used as the radioligand for EP receptors. [^3H] 17-phenyl PGF2α was employed for FP receptor binding studies. Binding studies employing EP1, EP2, EP4 and FP receptors were performed in duplicate in at least three separate experiments. A 200 μl assay volume was used. Incubations were for 60 min at 25° C. and were terminated by the addition of 4 ml of ice-cold 50 mM TRIS-HCl, followed by rapid filtration through Whatman GF/B filters and three additional 4 ml washes in a cell harvester (Brandel). Competition studies were performed using a final concentration of 5 nM [^3H]—PGE2, or 5 nM [^3H] 17-phenyl PGF2α and non-specific binding determined with 10^−5M of unlabeled PGE2, or 17-phenyl PGF2α, according to receptor subtype studied.

human EP2 receptors = target: T4, human EP2 receptors (Homo sapiens, UniProt P43116); test: Competition radioligand binding ([3H]PGE2), EP2; conditions: unit inferred; read-out: EP2 data Ki
T4 construct: expressed in transfected cells; host or cells: HEK 293
T4 sequence (P43116 whole entry): as the sequence (P43116 whole entry) above
Procedure: Competition binding experiments were performed in a medium containing Hank's balanced salt solution, […], membranes (˜60 μg protein) or 2×10^5 cells from HEK 293 cells stably expressing human EP2 receptors, [^3H]PGE2 (10 nM) and various concentrations of test compounds in a total volume of 300 μl. Reaction mixtures were incubated at 23° C. for 60 min, and were filtered over Whatman GF/B filters under vacuum. Filters were washed three times with 5 ml ice-cold buffer containing 50 mM Tris/HCl (pH 7.3). Non-specific binding was estimated in the presence of excess unlabeled PGE2 (10 μM). Binding data fitted to the binding model for a single class of binding sites, using nonlinear regression analysis. IC50 values thus obtained were converted to Ki using the equation of Ki=(IC50/(1+[L]/KD) where [L] represents PGE2 concentration (10 nM) and KD the dissociation constant for [^3H]PGE2 at human EP2 receptors (40 nM).
as §5, §6, §7

hEP4/Gqs5 = target: T5, hEP4/Gqs5 (Homo sapiens, UniProt P35408); test: FLIPR calcium signal, hEP4; format: cell-based; conditions: unit inferred; read-out: EP4 data flipr EC50
T5 construct: expressed in transfected cells; host or cells: HEK-293(EBNA)
T5 sequence (P35408 whole entry): as the sequence (P35408 whole entry) above
Procedure: as §1, §2, §3, §4

hEP3A/Gqi5 = target: T6, hEP3A/Gqi5 (Homo sapiens, UniProt P43115); test: FLIPR calcium signal, hEP3A; format: cell-based; conditions: read-out: Other Receptors EC50 hEP3A
T6 construct: expressed in transfected cells; host or cells: HEK-293(EBNA)
T6 sequence (P43115 1-390): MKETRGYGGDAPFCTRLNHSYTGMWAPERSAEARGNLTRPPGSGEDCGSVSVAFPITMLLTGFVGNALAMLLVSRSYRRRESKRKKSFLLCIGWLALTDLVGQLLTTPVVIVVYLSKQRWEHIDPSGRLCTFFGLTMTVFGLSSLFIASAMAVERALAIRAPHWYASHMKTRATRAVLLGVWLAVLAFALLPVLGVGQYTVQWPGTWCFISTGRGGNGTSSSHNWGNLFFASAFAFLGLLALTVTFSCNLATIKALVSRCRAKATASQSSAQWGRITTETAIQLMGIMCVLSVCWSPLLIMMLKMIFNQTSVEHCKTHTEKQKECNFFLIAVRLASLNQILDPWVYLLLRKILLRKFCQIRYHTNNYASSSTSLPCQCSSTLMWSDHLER
Procedure: as §1, §2, §3, §4

T1 sequence (P43116 whole entry): as the sequence (P43116 whole entry) above

Row | EC50 [1] [nM] | EC50 (hEP2/Gqs5) [nM] | Ki (EP4 receptors) [nM] | Ki (human EP2 receptors) [nM] | EC50 (hEP4/Gqs5) [nM] | EC50 (hEP3A/Gqi5) [nM] | SMILES
1 | 1220 | 7670 | > 10000 | > 10000 |  |  | CC(C)C(O)c1ccc(N2C(=O)CC[C@@H]2COCc2ccc(C(=O)O)o2)cc1 (stereo partly drawn)
2 | 148 | 1230 | > 10000 | 2290 |  |  | O=C(O)c1ccc(COC[C@H]2CCC(=O)N2c2ccc(C(O)Cc3ccccc3)cc2)o1 (stereo partly drawn)
3 | 8 | 212 | > 10000 | 387 |  |  | CCCCC(O)c1ccc(N2C(=O)CC[C@@H]2COCc2ccc(C(=O)O)s2)cc1 (stereo partly drawn)
4 | 1.5 |  | 6030 | 116 | > 10000 | 1200 | CCCCCC(O)c1ccc(N2C(=O)CC[C@@H]2COCc2ccc(C(=O)O)s2)cc1 (single isomer, unassigned) [drawing 149]
5 |  | 6 | > 10000 |  | > 10000 | 12 | CCCCCC(O)c1ccc(N2C(=O)CC[C@@H]2CCCc2ccc(C(=O)O)s2)cc1 (single isomer, unassigned) [drawing 150]
6 | 4 |  | 3290 |  |  | 621 | CCCCCCC(O)c1ccc(N2C(=O)CC[C@@H]2COCc2ccc(C(=O)O)s2)cc1 (single isomer, unassigned) [drawing 153]
7 | 4 | 49 | 3290 | 201 |  | 621 | CCCCCCC(O)c1ccc(N2C(=O)CC[C@@H]2COCc2ccc(C(=O)O)s2)cc1 (single isomer, unassigned) [drawing 181]
8 | 15 | 226 | > 10000 | 1380 |  |  | CCCCCC(O)c1ccc(N2C(=O)CC[C@@H]2/C=C/Cc2ccc(C(=O)O)s2)cc1 (stereo partly drawn) [drawing 144]
9 |  |  | 8750 | 22700 |  |  | CCCCCC(O)c1ccc(N2C(=O)CC[C@@H]2COc2ccc(C(=O)O)cc2)cc1 (stereo partly drawn) [drawing 157]
10 |  |  |  |  |  | 1410 | CCCCCC(O)c1ccc(N2C(=O)CC[C@@H]2/C=C/Cc2ccc(C(=O)O)s2)cc1 (stereo partly drawn) [drawing 172]
11 |  | 7280 | 8750 | 22700 |  |  | CCCCCC(O)c1ccc(N2C(=O)CC[C@@H]2COc2ccc(C(=O)O)cc2)cc1 (stereo partly drawn) [drawing 185]

From patent US7799821B2, “Therapeutic compounds” (Allergan, Inc., priority 2004, dated 2010)
